The values below come from PMC12752563, “Caffeic Acid Acts as a Potent Senomorphic and Alleviates Inflammation and Lung Fibrosis by Covalently Targeting Annexin A5 Protein in Mice” (Exploration, 2025).

For assay [1], the target named is T1, Annexin A5 (ANXA5) (Homo sapiens, UniProt P08758).
T1 construct: recombinant protein purified from E. coli; His-tag labelled for MST
T1 sequence (P08758 2-320): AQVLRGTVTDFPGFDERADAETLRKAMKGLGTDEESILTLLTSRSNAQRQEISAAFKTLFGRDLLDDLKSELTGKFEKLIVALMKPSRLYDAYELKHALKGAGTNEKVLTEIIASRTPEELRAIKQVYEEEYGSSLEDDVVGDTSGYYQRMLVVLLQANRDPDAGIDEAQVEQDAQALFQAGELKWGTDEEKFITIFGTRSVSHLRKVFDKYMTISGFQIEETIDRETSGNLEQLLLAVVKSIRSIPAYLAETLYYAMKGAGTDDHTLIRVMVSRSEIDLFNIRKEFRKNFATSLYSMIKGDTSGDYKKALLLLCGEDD
In words: in-gel fluorescence after click chemistry. The class given is binding. The following applies: covalent; 12% SDS-PAGE.

For assay [2], the target named is T1, Annexin A5 (ANXA5). In words: microscale thermophoresis. It is filed as binding. In general terms: MST reads how a fluorescent partner responds to local heating, with and without ligand.

Structures are written as SMILES.

`C#CCNC(=O)/C=C/c1ccc(O)c(O)c1` [CA probe]: in assay [1], the “in-gel fluorescence after click chemistry” value is “wild‐type ANXA5 could be labeled by CA‐probe”.

As a reminder, the Kd is the constant that tells how readily two partners part at equilibrium. `O=C(O)/C=C/c1ccc(O)c(O)c1` [CA, caffeic acid] gave a Kd in assay [2] of 3.68 µM.
